The values below come from patent US11723589B2 (The General Hospital Corporation, priority 2010, dated 2023).

Entries after “also recorded” stand apart in the source; their conditions may differ.

Assay [1] relates to rats. The assay is described as follows: D-MPH versus L-MPH reversal of isoflurane anesthesia, loss of righting reflex (LORR). It is filed as in vivo, rat. The conditions noted are these: intravenous, rat animal model. From the text:
Pure D-MPH (Focalin) is currently available in oral form for Attention Deficit Hyperactivity Disorder (ADHD), but it is not available for intravenous use.

The test system of assay [2] is Male Sprague-Dawley rats. The assay is described as follows: Electroencephalogram recording and spectral analysis during continuous isoflurane. The conditions noted are these: isoflurane 1.0%. It is filed as in vivo, rat. On the procedure: Electroencephalogram electrode placement, recording, and spectral analysis. Extradural electroencephalogram electrodes were surgically implanted at least 7 days prior to recording. General anesthesia was induced with xylazine (5-10 mg/kg IP) and ketamine (50-100 mg/kg IP), and supplemented with isoflurane (1-2%). A microdrill was used to make four holes at the following stereotactic coordinates: A0L0, A6L3, A6L-3, and A10L2 relative to the lambda.^12 Polytetrafluoroethylene coated, 200 μm diameter stainless steel electrode wires (A-M Systems, Sequim, Wash.) were inserted and secured with small stainless steel screws, and permanently fixed with dental acrylic cement. Carprofen (5 mg/kg SC) was administered for analgesia on the day of surgery, as well as on post-operative days 1, and 2. The potential difference between electrodes A0L0 and A6L3, or between electrodes A0L0 and A6L-3 (whichever gave less motion artifact), was referenced to A10L2 and recorded using a QP511 Quad AC Amplifier System (Grass Instruments, West Warwick, R.I.) and a USB-6009 14-bit data acquisition board (National Instruments, Austin, Tex.). Data was filtered between 0.3-100 Hz. No line filter was used. The sampling rate was 512 Hz. After baseline recordings were taken for 10 minutes while awake, rats were anesthetized with isoflurane and placed in the anesthetizing chamber. […] Therefore the inventors performed the electroencephalogram experiments in the prone position with the isoflurane dose fixed at 1.0%. These modifications allowed us to minimize electroencephalogram motion artifacts without restraining the animals. After a minimum isoflurane exposure of 40 minutes, normal saline was administered and the temperature probe was removed. Five minutes later, methylphenidate was administered. Spectral analysis was performed using Matlab 7.11 (Mathworks, Natick, Mass.) and the Chronux software (Cold Spring Harbor, N.Y.). 13 Spectrograms were calculated using sliding windows of 2 sec duration stepped through 0.05 sec. For each window, multitaper spectrum estimation was performed using 5 tapers. […]

Assay [3] deals with rats. The assay is described as follows: Time to emergence after a single dose of propofol. It is filed as in vivo, rat. The conditions noted are these: propofol 8 mg/kg IV, MPH 5 mg/kg IV 45 sec later; mean±SE; n=6. On the procedure:
For the first experiment, a lateral tail vein IV catheter was placed in rats under isoflurane anesthesia. […] Time to emergence was defined as the time until restoration of righting occurred. Statistical analysis was performed using the Mann-Whitney test.

In assay [4] the target is norepinephrine transporter (Homo sapiens, UniProt P23975). The following applies: read-out: Ki, norepinephrine transporter; cited from earlier work.
Sequence of norepinephrine transporter (P23975 whole entry): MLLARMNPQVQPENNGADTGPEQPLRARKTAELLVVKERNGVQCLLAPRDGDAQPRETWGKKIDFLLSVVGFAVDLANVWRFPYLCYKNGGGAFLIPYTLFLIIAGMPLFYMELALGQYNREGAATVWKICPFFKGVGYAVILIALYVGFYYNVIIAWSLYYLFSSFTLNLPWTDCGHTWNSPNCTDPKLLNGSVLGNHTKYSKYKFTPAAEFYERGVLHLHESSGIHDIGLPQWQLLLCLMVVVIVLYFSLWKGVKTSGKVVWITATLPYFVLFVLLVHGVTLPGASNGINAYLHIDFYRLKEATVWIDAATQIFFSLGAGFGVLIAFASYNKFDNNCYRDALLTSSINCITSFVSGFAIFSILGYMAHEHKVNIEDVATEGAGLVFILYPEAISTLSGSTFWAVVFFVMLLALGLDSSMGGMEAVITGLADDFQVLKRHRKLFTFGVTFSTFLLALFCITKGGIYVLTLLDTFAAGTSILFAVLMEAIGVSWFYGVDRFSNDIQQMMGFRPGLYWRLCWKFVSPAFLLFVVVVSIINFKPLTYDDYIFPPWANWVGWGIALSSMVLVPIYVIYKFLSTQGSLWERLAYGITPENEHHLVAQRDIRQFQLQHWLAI

What is called Ki is a measure of affinity in units of concentration, obtained from inhibition or displacement.

`COC(=O)[C@H](c1ccccc1)[C@H]1CCCCN1` (racemic) [methylphenidate]: the “reversal of isoflurane-induced general anesthesia” value in assay [1] is given as “rapidly reversed isoflurane-induced general anesthesia”. Moreover, in assay [2] (droperidol 0.5 mg/kg IV five minutes before methylphenidate 5 mg/kg IV), the “EEG changes after methylphenidate with droperidol pretreatment” value was “did not induce electroencephalogram changes consistent with arousal; also recorded: failed to induce these electroencephalogram changes; also recorded: the shift in peak power from delta to theta was absent”. The “persistence of the active EEG pattern” value in assay [2] (methylphenidate 5 mg/kg IV) is listed as “more than 15 minutes”. For the same molecule, the “time to emergence (restoration of righting) after a single dose of propofol” value in assay [3] came to 433 ± 24 s. In assay [4], the Ki is 0.15 µM.
